Common to all, as to assay type: functional, organism-based
Experiment [1] has as its system Plasmodium falciparum. The experiment is described as follows: Antimalarial activity against chloroquine-sensitive Plasmodium falciparum D6 assessed as inhibition of [3H]hypoxanthine incorporation after 96 hrs by microtiter plate scintillation counting.
Experiment [2] concerns Plasmodium falciparum. In words: Antimalarial activity against multidrug-resistant Plasmodium falciparum TM91C235 assessed as inhibition of [3H]hypoxanthine incorporation after 96 hrs by microtiter plate scintillation counting.
In experiment [3] the test system is Plasmodium falciparum. The experiment is described as follows: Antimalarial activity against chloroquine-,pyrimethamine-resistant Plasmodium falciparum W2 assessed as inhibition of [3H]hypoxanthine incorporation after 96 hrs by microtiter plate scintillation counting.

SMILES strings stand for the structures.

On to `CC[C@H]1OC(=O)[C@H](C)[C@@H](O[C@H]2C[C@@](C)(OC)[C@@H](O)[C@H](C)O2)[C@H](C)[C@@H](O[C@@H]2O[C@H](C)C[C@H](N(C)C)[C@H]2O)[C@](C)(O)C[C@@H](C)CN(CCCNC(=O)Nc2ccc3c(c2)CCC3)[C@H](C)[C@@H](O)[C@]1(C)O`, for which the half-inhibitory concentration (IC50) turned out to be 266 nM in experiment [1], 96.2 nM in experiment [2] and 73.6 nM in experiment [3].
For the compound `CC[C@H]1OC(=O)[C@H](C)[C@@H](O[C@H]2C[C@@](C)(OC)[C@@H](O)[C@H](C)O2)[C@H](C)[C@@H](O[C@@H]2O[C@H](C)C[C@H](N(C)C)[C@H]2O)[C@](C)(O)C[C@@H](C)CN(CCCNC(=S)Nc2ccc(Br)cc2)[C@H](C)[C@@H](O)[C@]1(C)O`, the values for the half-inhibitory concentration (IC50) in experiment [1], in experiment [2] and in experiment [3] were 261 nM, 173 nM and 169 nM, respectively.
As for `CC[C@H]1OC(=O)[C@H](C)[C@@H](O[C@H]2C[C@@](C)(OC)[C@@H](O)[C@H](C)O2)[C@H](C)[C@@H](O[C@@H]2O[C@H](C)C[C@H](N(C)C)[C@H]2O)[C@](C)(O)C[C@@H](C)CN(CCCNC(=O)Nc2ccccc2-c2ccccc2)[C@H](C)[C@@H](O)[C@]1(C)O`, the values for the IC50 in experiment [1], in experiment [2] and in experiment [3] were 254 nM, 137 nM and 202 nM, respectively.
Regarding `CC[C@H]1OC(=O)[C@H](C)[C@@H](O[C@H]2C[C@@](C)(OC)[C@@H](O)[C@H](C)O2)[C@H](C)[C@@H](O[C@@H]2O[C@H](C)C[C@H](N(C)C)[C@H]2O)[C@](C)(O)C[C@@H](C)CN(CCCNC(=O)Nc2ccc(OC)c(OC3CCCC3)c2)[C@H](C)[C@@H](O)[C@]1(C)O`, the IC50 in experiment [1] was 445 nM; in experiment [2], 138 nM; in experiment [3] it was 201 nM.
For `CC[C@H]1OC(=O)[C@H](C)[C@@H](O[C@H]2C[C@@](C)(OC)[C@@H](O)[C@H](C)O2)[C@H](C)[C@@H](O[C@@H]2O[C@H](C)C[C@H](N(C)C)[C@H]2O)[C@](C)(O)C[C@@H](C)CN(CCCNC(=O)Nc2ccc(C)cc2C)[C@H](C)[C@@H](O)[C@]1(C)O` the same measures were 470 nM, 232 nM and 179 nM.
For `CCC(C)NC(=O)NCCCN1C[C@H](C)C[C@@](C)(O)[C@H](O[C@@H]2O[C@H](C)C[C@H](N(C)C)[C@H]2O)[C@@H](C)[C@H](O[C@H]2C[C@@](C)(OC)[C@@H](O)[C@H](C)O2)[C@@H](C)C(=O)O[C@H](CC)[C@@](C)(O)[C@H](O)[C@H]1C` (stereo partly specified) the same measures were 14000 nM, 1180 nM and 489 nM.
The matching figures for `CC[C@H]1OC(=O)[C@H](C)[C@@H](O[C@H]2C[C@@](C)(OC)[C@@H](O)[C@H](C)O2)[C@H](C)[C@@H](O[C@@H]2O[C@H](C)C[C@H](N(C)C)[C@H]2O)[C@](C)(O)C[C@@H](C)CN(CCCNC(=O)NCc2ccc(OC)cc2)[C@H](C)[C@@H](O)[C@]1(C)O`: 1620 nM, 484 nM and 204 nM.
As for `CC[C@H]1OC(=O)[C@H](C)[C@@H](O[C@H]2C[C@@](C)(OC)[C@@H](O)[C@H](C)O2)[C@H](C)[C@@H](O[C@@H]2O[C@H](C)C[C@H](N(C)C)[C@H]2O)[C@](C)(O)C[C@@H](C)CN(CCCNC(=O)Nc2ccc(C(F)(F)F)cc2)[C@H](C)[C@@H](O)[C@]1(C)O`, the values for the half-inhibitory concentration (IC50) in experiment [1], in experiment [2] and in experiment [3] were 160 nM, 84.2 nM and 74.6 nM, respectively.
Turning to `CC[C@H]1OC(=O)[C@H](C)[C@@H](O[C@H]2C[C@@](C)(OC)[C@@H](O)[C@H](C)O2)[C@H](C)[C@@H](O[C@@H]2O[C@H](C)C[C@H](N(C)C)[C@H]2O)[C@](C)(O)C[C@@H](C)CN(CCCNC(=O)Nc2cc(C)oc2C(F)(F)F)[C@H](C)[C@@H](O)[C@]1(C)O`, the 50% inhibitory concentration (IC50) in experiment [1] was 361 nM; in experiment [2], 320 nM; in experiment [3], 310 nM.
For `CC[C@H]1OC(=O)[C@H](C)[C@@H](O[C@H]2C[C@@](C)(OC)[C@@H](O)[C@H](C)O2)[C@H](C)[C@@H](O[C@@H]2O[C@H](C)C[C@H](N(C)C)[C@H]2O)[C@](C)(O)C[C@@H](C)CN(CCCNC(=S)Nc2ccc(-n3cccn3)cc2)[C@H](C)[C@@H](O)[C@]1(C)O`, the results for the IC50 in experiment [1], in experiment [2] and in experiment [3] were 160 nM, 101 nM and 109 nM, respectively.
The matching figures for `CC[C@H]1OC(=O)[C@H](C)[C@@H](O[C@H]2C[C@@](C)(OC)[C@@H](O)[C@H](C)O2)[C@H](C)[C@@H](O[C@@H]2O[C@H](C)C[C@H](N(C)C)[C@H]2O)[C@](C)(O)C[C@@H](C)CN(CCCNC(=S)NCCCl)[C@H](C)[C@@H](O)[C@]1(C)O`: 12800 nM, 12800 nM and 12800 nM.
`CC[C@H]1OC(=O)[C@H](C)[C@@H](O[C@H]2C[C@@](C)(OC)[C@@H](O)[C@H](C)O2)[C@H](C)[C@@H](O[C@@H]2O[C@H](C)C[C@H](N(C)C)[C@H]2O)[C@](C)(O)C[C@@H](C)CN(CCCNC(=S)Nc2ccc(Oc3ccccc3)nc2)[C@H](C)[C@@H](O)[C@]1(C)O`: the IC50 in experiment [1] is 215 nM; in experiment [2], 133 nM; in experiment [3] it was 109 nM.
As for `CC[C@H]1OC(=O)[C@H](C)[C@@H](O[C@H]2C[C@@](C)(OC)[C@@H](O)[C@H](C)O2)[C@H](C)[C@@H](O[C@@H]2O[C@H](C)C[C@H](N(C)C)[C@H]2O)[C@](C)(O)C[C@@H](C)CN(CCCNC(=S)NC(=O)c2ccccc2)[C@H](C)[C@@H](O)[C@]1(C)O`, the IC50 in experiment [1] turned out to be 298 nM; in experiment [2] it was 288 nM; in experiment [3], 107 nM.
The matching figures for `CC[C@H]1OC(=O)[C@H](C)[C@@H](O[C@H]2C[C@@](C)(OC)[C@@H](O)[C@H](C)O2)[C@H](C)[C@@H](O[C@@H]2O[C@H](C)C[C@H](N(C)C)[C@H]2O)[C@](C)(O)C[C@@H](C)CN(CCCNC(=O)Nc2ccc(F)c(F)c2)[C@H](C)[C@@H](O)[C@]1(C)O`: 300 nM, 127 nM and 89.6 nM.
The matching figures for `CC[C@H]1OC(=O)[C@H](C)[C@@H](O[C@H]2C[C@@](C)(OC)[C@@H](O)[C@H](C)O2)[C@H](C)[C@@H](O[C@@H]2O[C@H](C)C[C@H](N(C)C)[C@H]2O)[C@](C)(O)C[C@@H](C)CN(CCCNC(=S)Nc2ccc(N(C)C)c3ccccc23)[C@H](C)[C@@H](O)[C@]1(C)O`: 326 nM, 180 nM and 175 nM.
Consider `CCc1ccccc1NC(=S)NCCCN1C[C@H](C)C[C@@](C)(O)[C@H](O[C@@H]2O[C@H](C)C[C@H](N(C)C)[C@H]2O)[C@@H](C)[C@H](O[C@H]2C[C@@](C)(OC)[C@@H](O)[C@H](C)O2)[C@@H](C)C(=O)O[C@H](CC)[C@@](C)(O)[C@H](O)[C@H]1C`, for which the IC50 in experiment [1] was 445 nM; in experiment [2] it was 252 nM; in experiment [3], 96.2 nM.
For `CC[C@H]1OC(=O)[C@H](C)[C@@H](O[C@H]2C[C@@](C)(OC)[C@@H](O)[C@H](C)O2)[C@H](C)[C@@H](O[C@@H]2O[C@H](C)C[C@H](N(C)C)[C@H]2O)[C@](C)(O)C[C@@H](C)CN(CCCNC(=O)Nc2ccc3c(c2)OCO3)[C@H](C)[C@@H](O)[C@]1(C)O` the same measures were 835 nM, 265 nM and 111 nM.

One may read the IC50 as the concentration that gives 50% inhibition.

The values are drawn from ChEMBL document CHEMBL1681728, “An automated, polymer-assisted strategy for the preparation of urea and thiourea derivatives of 15-membered azalides as potential antimalarial chemotherapeutics” (Bioorg Med Chem, 2011).
